tested on: ER-alpha MCF7; experiment: ER-alpha MCF7 HCS EC50; stated as measured by in vitro cell proliferation assays of Examples 902 and 903; format: cell-based; conditions: Homo sapiens, MCF7, MCF7 cells; Table 2
Summary of the method: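 MCF7 cells seeded 1000-2000 cells/well for 16 h, then treated with nine-point 1:2 DMSO dilution series in quadruplicate at 37 °C, 5% CO2 for 4 days. Viable cells quantified by CellTiter-Glo ATP luminescence; EC50 calculated. Controls: fulvestrant at final 100 nM, DMSO 0.2% v/v.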

EC50 [pM]	Compound
1010	C[C@@H]1Cc2c([nH]c3ccccc23)[C@@H](c2c(F)cc(NC3CN(CCCF)C3)cc2F)N1CC(C)(C)C(=O)O [Example 382, 3-((1R,3R)-1-(2,6-difluoro-4-((1-(3-fluoropropyl)azetidin-3-yl)amino)phenyl)-3-methyl-1,3,4,9-tetrahydro-2H-pyrido[3,4-b]indol-2-yl)-2,2-dimethylpropanoic acid]
149	C[C@@H]1Cc2c([nH]c3ccc(F)cc23)[C@@H](c2c(F)cc(NC3CN(CCCF)C3)cc2F)N1S(C)(=O)=O [Example 387, N-(3,5-difluoro-4-((1R,3R)-6-fluoro-3-methyl-2-(methylsulfonyl)-2,3,4,9-tetrahydro-1H-pyrido[3,4-b]indol-1-yl)phenyl)-1-(3-fluoropropyl)azetidin-3-amine]
19000	C[C@H]1Cc2c([nH]c3ccc(F)cc23)[C@H](c2c(F)cc(NC3CN(CCCF)C3)cc2F)N1S(C)(=O)=O [Example 388, N-(3,5-difluoro-4-((1S,3S)-6-fluoro-3-methyl-2-(methylsulfonyl)-2,3,4,9-tetrahydro-1H-pyrido[3,4-b]indol-1-yl)phenyl)-1-(3-fluoropropyl)azetidin-3-amine]
56	C[C@@H]1Cc2c([nH]c3ccc(F)cc23)[C@@H](c2c(F)cc(NC3CN(CCCF)C3)cc2F)N1CC(F)F [Example 389, N-(4-((1R,3R)-2-(2,2-difluoroethyl)-6-fluoro-3-methyl-2,3,4,9-tetrahydro-1H-pyrido[3,4-b]indol-1-yl)-3,5-difluorophenyl)-1-(3-fluoropropyl)azetidin-3-amine]
9700	C[C@H]1Cc2c([nH]c3ccc(F)cc23)[C@H](c2c(F)cc(NC3CN(CCCF)C3)cc2F)N1CC(F)F [Example 390, N-(4-((1S,3S)-2-(2,2-difluoroethyl)-6-fluoro-3-methyl-2,3,4,9-tetrahydro-1H-pyrido[3,4-b]indol-1-yl)-3,5-difluorophenyl)-1-(3-fluoropropyl)azetidin-3-amine]
110	C[C@@H]1Cc2c([nH]c3cc(F)ccc23)[C@@H](c2c(F)cc(NC3CN(CCCF)C3)cc2F)N1CC(F)(F)F [Example 396, N-(3,5-difluoro-4-((1R,3R)-7-fluoro-3-methyl-2-(2,2,2-trifluoroethyl)-2,3,4,9-tetrahydro-1H-pyrido[3,4-b]indol-1-yl)phenyl)-1-(3-fluoropropyl)azetidin-3-amine]
33000	C[C@H]1Cc2c([nH]c3cc(F)ccc23)[C@H](c2c(F)cc(NC3CN(CCCF)C3)cc2F)N1CC(F)(F)F [Example 397, N-(3,5-difluoro-4-((1S,3S)-7-fluoro-3-methyl-2-(2,2,2-trifluoroethyl)-2,3,4,9-tetrahydro-1H-pyrido[3,4-b]indol-1-yl)phenyl)-1-(3-fluoropropyl)azetidin-3-amine]
110	C[C@@H]1Cc2c([nH]c3cccc(F)c23)[C@@H](c2c(F)cc(NC3CN(CCCF)C3)cc2F)N1C[C@](C)(F)CO [Example 398, (S)-3-((1R,3R)-1-(2,6-difluoro-4-((1-(3-fluoropropyl)azetidin-3-yl)amino)phenyl)-5-fluoro-3-methyl-3,4-dihydro-1H-pyrido[3,4-b]indol-2(9H)-yl)-2-fluoro-2-methylpropan-1-ol]

The next lines start with the compound.

Compound	EC50 [pM]
C[C@@H]1Cc2c([nH]c3ccccc23)[C@@H](c2c(F)cc(OCCN3CC(CF)C3)cc2F)N1CC(C)(C)C(=O)O [Example 374, 3-((1R,3R)-1-(2,6-difluoro-4-(2-(3-(fluoromethyl)azetidin-1-yl)ethoxy)phenyl)-3-methyl-1,3,4,9-tetrahydro-2H-pyrido[3,4-b]indol-2-yl)-2,2-dimethylpropanoic acid]	1550
C[C@@H]1Cc2c([nH]c3ccccc23)[C@@H](c2c(F)cc(OC3CN(CCCF)C3)cc2F)N1C[C@H](CO)C(F)(F)F [Example 375, (R)-2-(((1R,3R)-1-(2,6-difluoro-4-((1-(3-fluoropropyl)azetidin-3-yl)oxy)phenyl)-3-methyl-1,3,4,9-tetrahydro-2H-pyrido[3,4-b]indol-2-yl)methyl)-3,3,3-trifluoropropan-1-ol]	764
C[C@@H]1Cc2c([nH]c3ccccc23)[C@@H](c2c(F)cc(OC3CN(CCCF)C3)cc2F)N1C[C@@H](CO)C(F)(F)F [Example 376, (S)-2-(((1R,3R)-1-(2,6-difluoro-4-((1-(3-fluoropropyl)azetidin-3-yl)oxy)phenyl)-3-methyl-1,3,4,9-tetrahydro-2H-pyrido[3,4-b]indol-2-yl)methyl)-3,3,3-trifluoropropan-1-ol]	1000
C[C@@H]1Cc2c([nH]c3ccccc23)[C@@H](c2cnc(OC3CN(CCCF)C3)nc2)N1CC(C)(C)F [Example 377, (1R,3R)-2-(2-fluoro-2-methylpropyl)-1-(2-((1-(3-fluoropropyl)azetidin-3-yl)oxy)pyrimidin-5-yl)-3-methyl-2,3,4,9-tetrahydro-1H-pyrido[3,4-b]indole]	500
C[C@@H]1Cc2c([nH]c3ccccc23)[C@H](c2c(F)cc(OCCN3CC(CF)C3)cc2F)N1CC(C)(C)C(=O)O [Example 378, 3-[(1S,3R)-1-[2,6-difluoro-4-[2-[3-(fluoromethyl)azetidin-1-yl]ethoxy]phenyl]-3-methyl-1,3,4,9-tetrahydropyrido[3,4-b]indol-2-yl]-2,2-dimethyl-propanoic acid]	28000
C[C@@H]1Cc2c([nH]c3ccccc23)[C@@H](c2c(F)cc(OCCN3CC(CF)C3)cc2F)N1CC(C)(F)F [Example 379, (1R,3R)-1-(2,6-difluoro-4-(2-(3-(fluoromethyl)azetidin-1-yl)ethoxy)phenyl)-2-(2,2-difluoropropyl)-3-methyl-2,3,4,9-tetrahydro-1H-pyrido[3,4-b]indole]	280
C[C@@H]1Cc2c([nH]c3ccccc23)[C@@H](c2ccc([C@@H](O)C3CN(CCCF)C3)cc2)N1CC(C)(C)F [Example 380, (S)-(4-((1R,3R)-2-(2-fluoro-2-methylpropyl)-3-methyl-2,3,4,9-tetrahydro-1H-pyrido[3,4-b]indol-1-yl)phenyl)(1-(3-fluoropropyl)azetidin-3-yl)methanol]	188
C[C@@H]1Cc2c([nH]c3ccccc23)[C@@H](c2ccc([C@H](O)C3CN(CCCF)C3)cc2)N1CC(C)(C)F [Example 381, (R)-(4-((1R,3R)-2-(2-fluoro-2-methylpropyl)-3-methyl-2,3,4,9-tetrahydro-1H-pyrido [3,4-b]indol-1-yl)phenyl)(1-(3-fluoropropyl)azetidin-3-yl)methanol]	605
C[C@@H]1Cc2c([nH]c3ccc(F)cc23)[C@@H](c2c(F)cc(OCCN3CC(CF)C3)cc2F)N1CC(F)F [Example 383, (1R,3R)-1-(2,6-difluoro-4-(2-(3-(fluoromethyl)azetidin-1-yl)ethoxy)phenyl)-2-(2,2-difluoroethyl)-6-fluoro-3-methyl-2,3,4,9-tetrahydro-1H-pyrido[3,4-b]indole]	280
C[C@H]1Cc2c([nH]c3ccc(F)cc23)[C@H](c2c(F)cc(OCCN3CC(CF)C3)cc2F)N1CC(F)F [Example 384, (1S,3S)-1-(2,6-difluoro-4-(2-(3-(fluoromethyl)azetidin-1-yl)ethoxy)phenyl)-2-(2,2-difluoroethyl)-6-fluoro-3-methyl-2,3,4,9-tetrahydro-1H-pyrido[3,4-b]indole]	29000
C[C@@H]1Cc2c([nH]c3ccc(F)cc23)[C@@H](c2c(F)cc(OC3CN(CCCF)C3)cc2F)N1CC(F)F [Example 385, (1R,3R)-1-(2,6-difluoro-4-((1-(3-fluoropropyl)azetidin-3-yl)oxy)phenyl)-2-(2,2-difluoroethyl)-6-fluoro-3-methyl-2,3,4,9-tetrahydro-1H-pyrido[3,4-b]indole]	74
C[C@H]1Cc2c([nH]c3ccc(F)cc23)[C@H](c2c(F)cc(OC3CN(CCCF)C3)cc2F)N1CC(F)F [Example 386, (1S,3S)-1-(2,6-difluoro-4-((1-(3-fluoropropyl)azetidin-3-yl)oxy)phenyl)-2-(2,2-difluoroethyl)-6-fluoro-3-methyl-2,3,4,9-tetrahydro-1H-pyrido[3,4-b]indole]	23000
C[C@@H]1Cc2c([nH]c3ccccc23)[C@@H](c2c(F)cc(OC3CN(CCCF)C3)cc2F)N1CC1(F)CCC1 [Example 393, (1R,3R)-1-(2,6-difluoro-4-((1-(3-fluoropropyl)azetidin-3-yl)oxy)phenyl)-2-((1-fluorocyclobutyl)methyl)-3-methyl-2,3,4,9-tetrahydro-1H-pyrido[3,4-b]indole]	142
C[C@@H]1Cc2c([nH]c3ccccc23)[C@@H](c2c(F)cc(OCCN3CC(CF)C3)cc2F)N1C[C@H](F)CO [Example 394, (S)-3-((1R,3R)-1-(2,6-difluoro-4-(2-(3-(fluoromethyl)azetidin-1-yl)ethoxy)phenyl)-3-methyl-3,4-dihydro-1H-pyrido[3,4-b]indol-2(9H)-yl)-2-fluoropropan-1-ol]	230
C[C@@H]1Cc2c([nH]c3ccccc23)[C@@H](c2c(F)cc(OCCN3CC(CF)C3)cc2F)N1C[C@@H](F)CO [Example 395, (R)-3-((1R,3R)-1-(2,6-difluoro-4-(2-(3-(fluoromethyl)azetidin-1-yl)ethoxy)phenyl)-3-methyl-3,4-dihydro-1H-pyrido[3,4-b]indol-2(9H)-yl)-2-fluoropropan-1-ol]	53

same assay, conditions: MCF7 cells; Table 2

EC50 [pM]	Compound
150	C[C@@H]1Cc2c([nH]c3ccccc23)[C@@H](c2c(F)cc(OC3CN(C4CC(CF)C4)C3)cc2F)N1CC(C)(C)F (stereo partly drawn) [Example 391, (1R,3R)-1-(2,6-difluoro-4-((1- cis-(3-(fluoromethyl)cyclobutyl)azetidin-3-yl)oxy)phenyl)-2-(2-fluoro-2-methylpropyl)-3-methyl-2,3,4,9-tetrahydro-1H-pyrido[3,4-b]indole]
440	C[C@@H]1Cc2c([nH]c3ccccc23)[C@@H](c2c(F)cc(OC3CN(C4CC(CF)C4)C3)cc2F)N1CC(C)(C)F (stereo partly drawn) [Example 392, (1R,3R)-1-(2,6-difluoro-4-((1- trans-(3-(fluoromethyl)cyclobutyl)azetidin-3-yl)oxy)phenyl)-2-(2-fluoro-2-methylpropyl)-3-methyl-2,3,4,9-tetrahydro-1H-pyrido[3,4-b]indole]
